In patent US11382328B2, “Rapid drug discovery methods for pathogen inactivation” (priority 2019, dated 2022):

Tested on: E. coli strain W3110
Assay: Synergy assays: Biolog chemical sensitivity panels with Group IB metal, coefficient of drug interaction (CDI) from relative growth
Format: cell-based
Conditions: for CDI (coefficient of drug interaction), copper mixed with biocide: Copper (mM) section
[1] = Copper 0.1 mM, biocide concentration 3 of 4
[2] = Copper 0.1 mM, biocide concentration 4 of 4
[3] = Copper 0.5 mM, biocide concentration 3 of 4
[4] = Copper 0.5 mM, biocide concentration 4 of 4
[5] = Copper 1.0 mM, biocide concentration 3 of 4
[6] = Copper 1.0 mM, biocide concentration 4 of 4
[7] = Gold 5 μM, biocide concentration 3 of 4, E. coli
[8] = Gold 5 μM, biocide concentration 4 of 4, E. coli
[9] = Gold 25 μM, biocide concentration 3 of 4, E. coli
[10] = Gold 25 μM, biocide concentration 4 of 4, E. coli
[11] = Silver 0.5 μM, 2nd of four biocide concentrations, E. coli
[12] = Silver 0.5 μM, 3rd of four biocide concentrations, E. coli
[13] = Silver 0.5 μM, 4th of four biocide concentrations, E. coli
[14] = Silver 1.0 μM, 2nd of four biocide concentrations, E. coli
[15] = Silver 1.0 μM, 3rd of four biocide concentrations, E. coli
[16] = Silver 1.0 μM, 4th of four biocide concentrations, E. coli
[17] = Silver 5.0 μM, 2nd of four biocide concentrations, E. coli
[18] = Silver 5.0 μM, 3rd of four biocide concentrations, E. coli
[19] = Silver 5.0 μM, 4th of four biocide concentrations, E. coli
[20] = […], biocide concentration 3 of 4, E. coli
[21] = […], biocide concentration 4 of 4, E. coli

## CCn1cc(C(=O)O)c(=O)c2cc(F)c(N3CCNCC3)cc21 [norfloxacin]
Gold 50 μM, biocide concentration 4 of 4, E. coli
  CDI (coefficient of drug interaction): Tox

## CN(C)C(=O)/N=N/C(=O)N(C)C [diamide]
1st of 3 copper concentrations (value not shown), 1st of four biocide concentrations
  CDI (coefficient of drug interaction), copper mixed with biocide: 1.02
1st of 3 copper concentrations (value not shown), 2nd of four biocide concentrations
  CDI (coefficient of drug interaction), copper mixed with biocide: 0.98
1st of 3 copper concentrations (value not shown), 3rd of four biocide concentrations
  CDI (coefficient of drug interaction), copper mixed with biocide: 0.96
1st of 3 copper concentrations (value not shown), 4th of four biocide concentrations
  CDI (coefficient of drug interaction), copper mixed with biocide: 0.99
2nd of 3 copper concentrations (value not shown), 1st of four biocide concentrations
  CDI (coefficient of drug interaction), copper mixed with biocide: 0.78
2nd of 3 copper concentrations (value not shown), 2nd of four biocide concentrations
  CDI (coefficient of drug interaction), copper mixed with biocide: 0.72
2nd of 3 copper concentrations (value not shown), 3rd of four biocide concentrations
  CDI (coefficient of drug interaction), copper mixed with biocide: Tox
2nd of 3 copper concentrations (value not shown), 4th of four biocide concentrations
  CDI (coefficient of drug interaction), copper mixed with biocide: Tox
3rd of 3 copper concentrations (value not shown), 1st of four biocide concentrations
  CDI (coefficient of drug interaction), copper mixed with biocide: 0.52
3rd of 3 copper concentrations (value not shown), 2nd of four biocide concentrations
  CDI (coefficient of drug interaction), copper mixed with biocide: 0.51
3rd of 3 copper concentrations (value not shown), 3rd of four biocide concentrations
  CDI (coefficient of drug interaction), copper mixed with biocide: 0.52
3rd of 3 copper concentrations (value not shown), 4th of four biocide concentrations
  CDI (coefficient of drug interaction), copper mixed with biocide: 0.56
Gold section of Table 5, first of three gold concentrations (μM, value not given), biocide concentration 1 of 4
  CDI (coefficient of drug interaction): 0.99
Gold section of Table 5, first of three gold concentrations (μM, value not given), biocide concentration 2 of 4
  CDI (coefficient of drug interaction): 0.86
Gold section of Table 5, first of three gold concentrations (μM, value not given), biocide concentration 3 of 4
  CDI (coefficient of drug interaction): Tox
Gold section of Table 5, first of three gold concentrations (μM, value not given), biocide concentration 4 of 4
  CDI (coefficient of drug interaction): Tox
Gold section of Table 5, second of three gold concentrations (μM, value not given), biocide concentration 1 of 4
  CDI (coefficient of drug interaction): 0.98
Gold section of Table 5, second of three gold concentrations (μM, value not given), biocide concentration 2 of 4
  CDI (coefficient of drug interaction): 0.89
Gold section of Table 5, second of three gold concentrations (μM, value not given), biocide concentration 3 of 4
  CDI (coefficient of drug interaction): Tox
Gold section of Table 5, second of three gold concentrations (μM, value not given), biocide concentration 4 of 4
  CDI (coefficient of drug interaction): Tox
Gold section of Table 5, third of three gold concentrations (μM, value not given), biocide concentration 1 of 4
  CDI (coefficient of drug interaction): 0.98
Gold section of Table 5, third of three gold concentrations (μM, value not given), biocide concentration 2 of 4
  CDI (coefficient of drug interaction): 0.93
Gold section of Table 5, third of three gold concentrations (μM, value not given), biocide concentration 3 of 4
  CDI (coefficient of drug interaction): Tox
Gold section of Table 5, third of three gold concentrations (μM, value not given), biocide concentration 4 of 4
  CDI (coefficient of drug interaction): Tox
Silver 0.5 μM, biocide concentration 1 of 4
  CDI: 1.19
Silver 0.5 μM, biocide concentration 2 of 4
  CDI: 1.07
Silver 0.5 μM, biocide concentration 3 of 4
  CDI: Tox
Silver 0.5 μM, biocide concentration 4 of 4
  CDI: Tox
Silver 1.0 μM, biocide concentration 1 of 4
  CDI: 1.01
Silver 1.0 μM, biocide concentration 2 of 4
  CDI: 0.90
Silver 1.0 μM, biocide concentration 3 of 4
  CDI: Tox
Silver 1.0 μM, biocide concentration 4 of 4
  CDI: Tox
Silver 5.0 μM, biocide concentration 1 of 4
  CDI: 0.97
Silver 5.0 μM, biocide concentration 2 of 4
  CDI: 0.40
Silver 5.0 μM, biocide concentration 3 of 4
  CDI: Tox
Silver 5.0 μM, biocide concentration 4 of 4
  CDI: Tox

## CCCCc1ccc(C(=O)O)nc1 [fusaric acid]
[1]
  CDI: Tox
[2]
  CDI: Tox
[3]
  CDI: Tox
[4]
  CDI: Tox
[5]
  CDI: Tox
[6]
  CDI: Tox
[7]
  CDI (coefficient of drug interaction): Tox
[8]
  CDI (coefficient of drug interaction): Tox
[9]
  CDI (coefficient of drug interaction): Tox
[10]
  CDI (coefficient of drug interaction): Tox
[11]
  CDI (coefficient of drug interaction), silver + biocide: Tox
[12]
  CDI (coefficient of drug interaction), silver + biocide: Tox
[13]
  CDI (coefficient of drug interaction), silver + biocide: Tox
[14]
  CDI (coefficient of drug interaction), silver + biocide: Tox
[15]
  CDI (coefficient of drug interaction), silver + biocide: Tox
[16]
  CDI (coefficient of drug interaction), silver + biocide: Tox
[17]
  CDI (coefficient of drug interaction), silver + biocide: Tox
[18]
  CDI (coefficient of drug interaction), silver + biocide: Tox
[19]
  CDI (coefficient of drug interaction), silver + biocide: Tox
[20]
  CDI (coefficient of drug interaction): Tox
[21]
  CDI (coefficient of drug interaction): Tox

## c1ccc(-c2ccccn2)nc1 [2,2′-dipyridyl]
Copper 0.1 mM, biocide concentration 1 of 4
  CDI: 0.76
Copper 0.1 mM, biocide concentration 2 of 4
  CDI: Tox
[1]
  CDI: Tox
[2]
  CDI: Tox
Copper 0.5 mM, biocide concentration 1 of 4
  CDI: 0.61
Copper 0.5 mM, biocide concentration 2 of 4
  CDI: Tox
[3]
  CDI: Tox
[4]
  CDI: Tox
Copper 1.0 mM, biocide concentration 1 of 4
  CDI: 0.76
Copper 1.0 mM, biocide concentration 2 of 4
  CDI: Tox
[5]
  CDI: Tox
[6]
  CDI: Tox
Gold 5 μM, biocide concentration 2 of 4, E. coli
  CDI (coefficient of drug interaction): Tox
[7]
  CDI (coefficient of drug interaction): Tox
[8]
  CDI (coefficient of drug interaction): Tox
Gold 25 μM, biocide concentration 1 of 4, E. coli
  CDI (coefficient of drug interaction): 1.09
Gold 25 μM, biocide concentration 2 of 4, E. coli
  CDI (coefficient of drug interaction): Tox
[9]
  CDI (coefficient of drug interaction): Tox
[10]
  CDI (coefficient of drug interaction): Tox
Silver 0.5 μM, 1st of four biocide concentrations, E. coli
  CDI (coefficient of drug interaction), silver + biocide: 1.55
[11]
  CDI (coefficient of drug interaction), silver + biocide: Tox
[12]
  CDI (coefficient of drug interaction), silver + biocide: Tox
[13]
  CDI (coefficient of drug interaction), silver + biocide: Tox
Silver 1.0 μM, 1st of four biocide concentrations, E. coli
  CDI (coefficient of drug interaction), silver + biocide: 1.07
[14]
  CDI (coefficient of drug interaction), silver + biocide: Tox
[15]
  CDI (coefficient of drug interaction), silver + biocide: Tox
[16]
  CDI (coefficient of drug interaction), silver + biocide: Tox
Silver 5.0 μM, 1st of four biocide concentrations, E. coli
  CDI (coefficient of drug interaction), silver + biocide: 1.21
[17]
  CDI (coefficient of drug interaction), silver + biocide: Tox
[18]
  CDI (coefficient of drug interaction), silver + biocide: Tox
[19]
  CDI (coefficient of drug interaction), silver + biocide: Tox
[…], biocide concentration 1 of 4, E. coli
  CDI (coefficient of drug interaction): 0.72
[…], biocide concentration 2 of 4, E. coli
  CDI (coefficient of drug interaction): Tox
[20]
  CDI (coefficient of drug interaction): Tox
[21]
  CDI (coefficient of drug interaction): Tox
